Source: ChEMBL document CHEMBL1133637, “Identification of MK-944a: a second clinical candidate from the hydroxylaminepentanamide isostere series of HIV protease inhibitors” (J Med Chem, 2000)

Key:
[1] = target: T1, Human immunodeficiency virus type 1 protease (Human immunodeficiency virus 1, UniProt Q72874)
[2] = target: Human immunodeficiency virus type 1 protease (Human immunodeficiency virus 1) (UniProt Q72874); experiment: Inhibition of HIV-1 protease in vitro.
[3] = Partition coefficient (logP); conditions: octanol/water
[4] = Maximal plasma concentration in dogs at 10mg/kg oral dose 0.05M citric acid; conditions: dog
in vivo = conditions: dog, po, 10 mg/kg
[5] = target: T1, Human immunodeficiency virus type 1 protease; experiment: Concentration required for 50% inhibition of Protease
[6] = target: Human immunodeficiency virus type 1 protease (Human immunodeficiency virus 1) (UniProt Q72874); experiment: Concentration required for 95% inhibition of Protease
[7] = target: Human immunodeficiency virus type 1 protease (Human immunodeficiency virus 1) (UniProt Q72874); experiment: Concentration required for 95%Inhibition of Protease

SMILES	IC50 [1] [nM]	IC95 [2] [nM]	Cmax [4] [nM]	further results
CC(C)(C)NC(=O)[C@@H]1CN(Cc2ccc(Cl)nc2)CCN1C[C@@H](O)C[C@@H](Cc1ccccc1)C(=O)NC1c2ccccc2C[C@H]1O (stereo not given in full)	0.49	12	–	logP [3]: > 3.84
Cc1cc2oc(CN3CCN(C[C@@H](O)C[C@@H](Cc4ccccc4)C(=O)NC4c5ccccc5C[C@H]4O)[C@H](C(=O)NC(C)(C)C)C3)cc2cn1 (stereo not given in full)	0.19	12	–	–
CC(C)(C)NC(=O)[C@@H]1CN(Cc2cnc3ccccc3c2)CCN1C[C@@H](O)C[C@@H](Cc1ccccc1)C(=O)NC1c2ccccc2C[C@H]1O (stereo not given in full)	0.14	25	–	–
CC(C)(C)NC(=O)[C@@H]1CN(Cc2cnc3occc3c2)CCN1C[C@@H](O)C[C@@H](Cc1ccccc1)C(=O)N[C@H]1c2ccccc2C[C@H]1O	0.35	6	15000	concentration at 8 h (in vivo): 9430 nM
CC(C)(C)NC(=O)[C@@H]1CN(Cc2nc3ccccc3[nH]2)CCN1C[C@@H](O)C[C@@H](Cc1ccccc1)C(=O)NC1c2ccccc2C[C@H]1O (stereo not given in full)	0.47	200	–	–
CC(C)(C)NC(=O)[C@@H]1CN(Cc2cccnc2)CCN1C[C@@H](O)C[C@@H](Cc1ccccc1)C(=O)N[C@H]1c2ccccc2C[C@H]1O	–	50	–	–
CCOC(=O)c1cnc2oc(CN3CCN(CC(O)CC(Cc4ccccc4)C(=O)NC4c5ccccc5CC4O)C(C(=O)NC(C)(C)C)C3)cc2c1 (stereo not given)	–	–	–	IC50 [5]: 0.27 nM; IC95 [6]: 25 nM
Cc1c(CN2CCN(CC(O)CC(Cc3ccccc3)C(=O)NC3c4ccccc4CC3O)C(C(=O)NC(C)(C)C)C2)oc2ccccc12 (stereo not given)	–	–	408	IC50 [5]: 0.11 nM; IC95 [6]: 25 nM
CC(C)(C)NC(=O)[C@@H]1CN(Cc2cc3ccccc3o2)CCN1C[C@@H](O)C[C@@H](Cc1ccccc1)C(=O)N[C@H]1c2ccccc2C[C@H]1O [L 756423]	0.18	25	28300	concentration at 8 h (in vivo): 800 nM
CC(C)(C)NC(=O)[C@@H]1CN(Cc2cc3ccncc3o2)CCN1C[C@@H](O)C[C@@H](Cc1ccccc1)C(=O)NC1c2ccccc2C[C@H]1O (stereo not given in full)	0.39	12.5	36500	–
CC(C)(C)NC(=O)[C@@H]1CN(Cc2cnc3c(c2)CCO3)CCN1C[C@@H](O)C[C@@H](Cc1ccccc1)C(=O)NC1c2ccccc2C[C@H]1O (stereo not given in full)	0.68	25	160	–
Cc1ccc(CN2CCN(C[C@@H](O)C[C@@H](Cc3ccccc3)C(=O)NC3c4ccccc4C[C@H]3O)[C@H](C(=O)NC(C)(C)C)C2)cn1 (stereo not given in full)	0.62	100	–	logP [3]: 2.14
CC(C)(C)NC(=O)C1CN(Cc2ccc3occc3c2)CCN1CC(O)CC(Cc1ccccc1)C(=O)NC1c2ccccc2CC1O (stereo not given)	1.7	100	–	–
Cc1nn(C)c2ncc(CN3CCN(C[C@@H](O)C[C@@H](Cc4ccccc4)C(=O)NC4c5ccccc5C[C@H]4O)[C@H](C(=O)NC(C)(C)C)C3)c(Cl)c12 (stereo not given in full)	–	–	–	IC50 [5]: 0.14 nM; IC95 [6]: 12.5 nM
CC(C)(C)NC(=O)C1CN(Cc2cc3cc(CO)cnc3o2)CCN1CC(O)CC(Cc1ccccc1)C(=O)NC1c2ccccc2CC1O (stereo not given)	–	–	–	IC50 [5]: 0.18 nM; IC95 [6]: 62.5 nM
COc1ncccc1CN1CCN(C[C@@H](O)C[C@@H](Cc2ccccc2)C(=O)NC2c3ccccc3C[C@H]2O)[C@H](C(=O)NC(C)(C)C)C1 (stereo not given in full)	1.1	12	515	logP [3]: > 3.84
CC(C)(C)NC(=O)C1CN(Cc2cc3cccnc3o2)CCN1CC(O)CC(Cc1ccccc1)C(=O)NC1c2ccccc2CC1O (stereo not given)	0.32	50	1170	–
CC(C)(C)NC(=O)[C@@H]1CN(Cc2cc3ccsc3s2)CCN1C[C@@H](O)C[C@@H](Cc1cccnc1)C(=O)N[C@H]1c2ccccc2C[C@H]1O	–	6	–	–
Cc1nn(C)c2ncc(CN3CCN(C[C@@H](O)C[C@@H](Cc4ccccc4)C(=O)NC4c5ccccc5C[C@H]4O)[C@H](C(=O)NC(C)(C)C)C3)cc12 (stereo not given in full)	–	–	190	IC50 [5]: 0.35 nM; IC95 [6]: 6 nM
CC(C)(C)NC(=O)C1CN(Cc2csc3ncccc23)CCN1CC(O)CC(Cc1ccccc1)C(=O)NC1c2ccccc2CC1O (stereo not given)	–	–	230	IC50 [5]: 0.2 nM; IC95 [7]: 6 nM
CCOc1ccc(CN2CCN(C[C@@H](O)C[C@@H](Cc3ccccc3)C(=O)NC3c4ccccc4C[C@H]3O)[C@H](C(=O)NC(C)(C)C)C2)cn1 (stereo not given in full)	3.4	100	300	logP [3]: 3.62
CC(C)(C)NC(=O)C1CN(Cc2cc3cccnc3s2)CCN1CC(O)CC(Cc1ccccc1)C(=O)NC1c2ccccc2CC1O (stereo not given)	0.11	12.5	–	–
CC(C)(C)NC(=O)[C@@H]1CN(Cc2cc3cnccc3o2)CCN1C[C@@H](O)C[C@@H](Cc1ccccc1)C(=O)NC1c2ccccc2C[C@H]1O (stereo not given in full)	0.22	6	–	–
CC(C)(C)NC(=O)C1CN(Cc2c[nH]c3ccccc23)CCN1CC(O)CC(Cc1ccccc1)C(=O)NC1c2ccccc2CC1O (stereo not given)	1.7	50	–	–
CC(C)(C)NC(=O)[C@@H]1CN(Cc2cnc3ccoc3c2)CCN1C[C@@H](O)C[C@@H](Cc1ccccc1)C(=O)NC1c2ccccc2C[C@H]1O (stereo not given in full)	0.17	3	9720	concentration at 8 h (in vivo): 1550 nM
CSc1ncccc1CN1CCN(C[C@@H](O)C[C@@H](Cc2ccccc2)C(=O)NC2c3ccccc3C[C@H]2O)[C@H](C(=O)NC(C)(C)C)C1 (stereo not given in full)	0.26	15.6	–	–
CC(C)(C)NC(=O)[C@@H]1CN(Cc2cnc3occc3c2Cl)CCN1C[C@@H](O)C[C@@H](Cc1ccccc1)C(=O)NC1c2ccccc2C[C@H]1O (stereo not given in full)	0.25	15.6	3940	concentration at 8 h (in vivo): 2060 nM
CC(C)(C)NC(=O)[C@@H]1CN(C(=O)c2cnc3occc3c2)CCN1C[C@@H](O)C[C@@H](Cc1ccccc1)C(=O)NC1c2ccccc2C[C@H]1O (stereo not given in full)	–	–	130	IC50 [5]: 1.7 nM; IC95 [6]: 100 nM
